Measured values as given in patent US6447794B2, “Stomach-action molluscicides” (priority 1996, dated 2002).

Experiments:
Deroceras reticulatum [1] = assay: preliminary trials, contact poison on a smooth glass surface; type: in vivo
Experimental: (§1) Subsequent trials compared the effective toxicity of methiocarb, metaldehyde bait pellets and ferric EDTA pellets and ferric EDTA bait powder to Helix aspersa and the effective toxicity of ferric EDTA to Deroceras reticulatum. Limited trials were carried out on Theba pisana (the white Italian snail), Cernuella virgata (the vineyard snail), Limax maximus and Cochlicella spp.

Helix apersa = assay: as above; type: in vivo, Helix aspersa
Experimental: as §1

Deroceras reticulatum [2] = details: on wet soil after 10 days; cited from earlier work

SMILES | toxicity as a contact poison (Deroceras reticulatum [1]) | toxicity as a contact poison (Helix apersa) | toxicity relative to Iron(III) EDTA (Deroceras reticulatum [2])
O=C([O-])CN(CCN(CC(=O)[O-])CC(=O)[O-])CC(=O)[O-].[Fe+3].[Na+] [ferric EDTA, Ferric sodium EDTA] | toxic | toxic | 
CC(=O)/C=C(/C)[O-].CC(=O)/C=C(/C)[O-].CC(=O)/C=C(/C)[O-].[Fe+3] [Iron(III) 2,4-pentanedionate] |  |  | about twice to three times as toxic
